Assay results reported in patent publication US7077859B2, “Apparatus and methods for variably controlled substance delivery from implanted prostheses” (Avantec Vascular Corporation, priority 2000, dated 2006).

Assays:
[1] = test system: porcine smooth muscle cell cultures; assay: Thymidine incorporation (proliferation) in porcine smooth muscle cell cultures; assay type: cell-based; details: for IC50: Sus scrofa, amount of incorporated thymidine, concentrations 0.003-156 micromolar, FIGS. 20A-B, read-out: IC50 (concentration at which 50% of the cells are prevented from proliferating)
Method: In order to assess the effect of therapeutic capable agents of the present invention on cell cultures, samples of 5 sets of therapeutic capable agents, as listed below, in varying concentrations were prepared and added to different groups of porcine smooth muscle cell cultures according to standard procedures. Set A, B, C, D, and E corresponded to therapeutic capable agent sets: Mycophenolic acid & Dexamethasone; Mycophenolic acid & Triptolide; Wortmannin and Methotrexate; Triptolide; Mycophenolate Mofetil; respectively. The amount of incorporated thymidine for the different samples of varying concentrations (0.003, 0.031, 0.31, 1.6, and 3.1 micromolar) was measured.
In another group of therapeutic capable agents, the amount of incorporated thymidine for samples of varying concentrations (0.003, 0.031, 0.31, 1.6, 3.1, 31, and 156 micromolar) was measured.

[2] = Half life of mycophenolic acid bound to BSA (MPA-BSA), assayed by liquid chromatography; assay type: in vitro ADME
From the text: The MPA-BSA has an increases half time (as measured by assaying methods such as liquid chromotography) as compared to mycophenolic acid alone and as shown in the table below: […]

With `C[C@@H]1C[C@H]2[C@@H]3CCC4=CC(=O)C=C[C@]4(C)[C@@]3(F)[C@@H](O)C[C@]2(C)[C@@]1(O)C(=O)CO` [Dexamethasone] the Cell death (cell cultures) was “did not lead to significant cell death”.

In the case of `CN(Cc1cnc2nc(N)nc(N)c2n1)c1ccc(C(=O)N[C@@H](CCC(=O)O)C(=O)O)cc1` [Methotrexate], the Cell death (cell cultures) is reported as “did not lead to significant cell death”.

In the case of `C[C@H]1C[C@@H]2[C@H]([C@@H](O)C[C@@]3(C)[C@H]2CC[C@]3(O)C(=O)CO)[C@@]2(C)C=CC(=O)C=C12` [Methylprednisolone, methylprednisolone], the IC50 [1] is reported as 1000 nM.

With `COc1c(C)c2c(c(O)c1C/C=C(\C)CCC(=O)OCCN1CCOCC1)C(=O)OC2` [Mycophenolate Mofetil] the “Effectiveness on cell proliferation (incorporated thymidine)” value ([1]; porcine smooth muscle cell cultures, 0.003-3.1 micromolar, FIG. 19E) was “may not be as effective in the absence of a bio-condition”.

With `COc1c(C)c2c(c(O)c1C/C=C(\C)CCC(=O)O)C(=O)OC2` [Mycophenolic acid, mycophenolic acid] the IC50 [1] was 1000 nM and the Cell death (cell cultures) was “did not lead to significant cell death”.

In the case of `CC(C)[C@]12O[C@H]1[C@@H]1O[C@]13[C@]1(O[C@H]1C[C@H]1C4=C(CC[C@@]13C)C(=O)OC4)[C@@H]2O` [Triptolide], the Cell death (cell cultures) is reported as “did not lead to significant cell death”.

For “MPA-BSA: mycophenolic acid (MPA) bound to Bovine Serum Albumin disposed adjacent the rate-controlling element, forming a complex”, the “Half Life (T)” value ([2]; Blood or Tissue BSA Concentration 1%) was 1.27 h, the “Half Life (T)” value ([2]; Blood or Tissue BSA Concentration 2%) was 2.02 h and the “Half Life (T)” value ([2]; Blood or Tissue BSA Concentration 4%) was 6.07 h. The “Half Life (T)” value ([2]; Blood or Tissue BSA Concentration 6%) was 32.07 h and the “Stability of the complex compared to mycophenolic acid alone” value ([2]; metabolism to glucuronide derivative) was “more stable than mycophenolic acid alone”.
